Test results reported in patent US5739117A, “Agent for improving cerebral metabolism including glucose ester derivatives” (Fujimoto Pharmaceutical Co., Ltd., priority 1993, dated 1998).

Legend:
[1] = Intra-cerebral and blood concentrations of ^18 F-AFDG and its metabolites after intravenous injection; format: in vivo; conditions: mice
Description: Mice were given an intravenous injection of 0.05 ml solution of 0.5 mM ^18 F-AFD in DMSO.

[2] = Kinetic changes in radioactivities in the blood and the cerebral tissue after intravenous injection; format: in vivo, mice (ddy strain); conditions: mice, i.v. tail vein
Description: Normal male mice of the ddy strain at 6 weeks of age were injected intravenously through tail vein with 0.05 ml of […] ^18 F in DMSO solution.
Kinetic changes in radioactivities in the blood and the cerebral tissue of the mice injected with ^18 F-AFDG.

Row | SMILES | proportion that reached the cerebral tissue ([1]; i.v., 0.05 ml of 0.5 mM in DMSO, within 0.5 minute following administration) | extent metabolized into ^18 F-FDG-6-phosphate ([1]; i.v., cerebral tissue, at 180 minutes) | time up to which levels of radioactivity in the cerebral tissue increased ([2]; 0.05 ml in DMSO, FIG. 1) [min] | blood radioactivity levels ([2]; 0.05 ml in DMSO, following administration) | radioactivity in the cerebral tissue after administration ([2]; 0.05 ml in DMSO, immediately after administration) | radioactivity in the cerebral tissue compared with blood ([2]; at 10 minutes of administration and thereafter) | time of emergence of intra-cerebral metabolites ([1]; i.v. ^18 F-AFDG, 0.5 mM in DMSO, cerebral tissue) [min] | concentration in the cerebral tissue over time ([1]; i.v. ^18 F-AFDG, after 0.5 minute, FIG. 3) | proportion among ^18 F-AFDG and metabolites in the cerebral tissue ([1]; i.v. ^18 F-AFDG, at 5, 60 and 180 minutes, compared with blood, FIGS. 4 and 5)
1 | CC(=O)OC[C@H]1OC(OC(C)=O)[C@H]([18F])[C@@H](OC(C)=O)[C@@H]1OC(C)=O (stereo partly drawn) [^18 F-AFDG, 1,3,4,6-tetra-O-acetyl-2-^18 F-D-glucose] | approximately 40% | the entire ^18 F-AFDG was found to be metabolized into ^18 F-FDG-6-phosphate | 30 | decreased consistently following administration | could be detected in the cerebral tissue immediately after administration | higher in the cerebral tissue than in the blood |  |  | 
2 | O=P(O)(O)OC[C@H]1OC(O)[C@H]([18F])[C@@H](O)[C@@H]1O (stereo partly drawn) [^18 F-FDG-6-phosphate] |  |  |  |  |  |  | ≤ 0.5 | raised markedly | highest proportion in the cerebral tissue
